From patent publication US11230556B2 (Merck Sharp & Dohme Corp., priority 2016, dated 2022)
pEC50: −log10 of the molar value.

Biological target: T1, human M4 muscarinic acetylcholine receptor (Homo sapiens, UniProt P08173)
T1 construct: expressed in transfected cells; host or cells: CHO-K1
T1 sequence (P08173 1-479): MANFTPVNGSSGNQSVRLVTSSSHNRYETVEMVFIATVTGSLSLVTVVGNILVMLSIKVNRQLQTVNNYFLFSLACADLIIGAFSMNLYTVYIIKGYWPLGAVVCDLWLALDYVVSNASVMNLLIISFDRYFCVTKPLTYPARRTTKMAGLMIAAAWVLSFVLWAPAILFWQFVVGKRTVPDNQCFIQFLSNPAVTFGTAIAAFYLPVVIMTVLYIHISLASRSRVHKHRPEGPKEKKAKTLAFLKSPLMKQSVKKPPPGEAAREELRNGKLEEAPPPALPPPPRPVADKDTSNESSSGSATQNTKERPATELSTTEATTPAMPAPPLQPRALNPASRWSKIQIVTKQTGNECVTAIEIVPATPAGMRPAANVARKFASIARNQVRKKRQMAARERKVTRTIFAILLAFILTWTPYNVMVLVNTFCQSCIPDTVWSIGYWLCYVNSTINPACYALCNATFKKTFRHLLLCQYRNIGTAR
Experiment: human FLIPR-based M4 PAM assay (CHO-K1 cells with human M4 receptor and Gαqi5, calcium dye fluorescence, acetylcholine at 20% of maximum response)
Format: cell-based
Conditions: inflection point (IP) of 4 parameter logistic dose response curve, human M4 receptor + Gαqi5, FLIPR Tetra
Method: In a typical experiment the M4 muscarinic acetylcholine receptor modulating activity of the compounds of the present invention was determined in accordance with the following experimental method. CHO-K1 cells stably transfected with human M4 receptor and chimeric G-protein Gαqi5 (Coward P, et al., Analytical Biochemistry, 270:242-248 (1999)) are thawed from liquid N2 storage, resuspended in growth medium, plated in black, clear bottom 384 well plates, and incubated 16-20 hours at 37° C., 5% CO2. On the day of assay, growth medium is removed, the cells are washed 2 times with wash buffer, and cells are incubated in dye loading buffer at 37° C., 5% CO2 for ˜1 hour. Following dye loading the cell plates are placed in a FLIPR Tetra instrument and while monitoring dye fluorescence (excitation […]), 10 uL of test substance at increasing concentrations is added, and fluorescence values are recorded for 4 min. Next, 10 uL of acetylcholine is added (final concentration calculated so as to achieve 20% of the maximum acetycholine response), and the fluorescence reading is continued for 3.5 min. In some cases, a third addition of acetylcholine (final concentration calculated to achieve 70% of the maximal acetylcholine response) is performed. The resulting dose response curves are fit to a 4 parameter logistic equation and the final result is determined as the inflection point (IP) of the curve
CHO-K1 cells stably transfected with human M4 receptor and chimeric G-protein Gαqi5 are thawed from liquid N2 storage, resuspended in growth medium, plated in black, clear bottom 384 well plates, and incubated 16-20 hours at 37° C., 5% CO2.
On the day of assay, growth medium is removed, the cells are washed 2 times with wash buffer, and cells are incubated in dye loading buffer at 37° C., 5% CO2 for ˜1 h. Following dye loading the cell plates are placed in a FLIPR Tetra instrument and while monitoring dye fluorescence ([…]), 10 uL of test substance at increasing concentrations is added, and fluorescence values are recorded for 4 min. Next, 10 uL of acetylcholine is added (final concentration calculated so as to achieve 20% of the maximum acetycholine response), and the fluorescence reading is continued for 3.5 min. In some cases, a third addition of acetylcholine (final concentration calculated to achieve 70% of the maximal acetylcholine response) is performed.

Row | Compound | pEC50
1 | Cc1cc2c(nc1N1CCC(Oc3cccc(C#N)c3)CC1)COC2=O [Example 32, 3-((1-(3-methyl-5-oxo-5,7-dihydrofuro[3,4-b]pyridin-2-yl)piperidin-4-yl)oxy)benzonitrile] | 7.85
2 | COc1ccc(OC2CCN(c3nc4nnc(C(F)(F)F)n4cc3C)CC2)cn1 [Example 80, 7-(4-((6-Methoxypyridin-3-yl)oxy)piperidin-1-yl)-6-methyl-3-(trifluoromethyl)-[1,2,4]triazolo[4,3-a]pyrimidine] | 5.51
3 | Cc1cc2c(nc1N1CCC(Oc3ccccc3)CC1)CNC2 [Example 35, 3-methyl-2-(4-phenoxypiperidin-1-yl)-6,7-dihydro-5H-pyrrolo[3,4-b]pyridine] | 7.12
4 | COc1ccc(OC2CCN(c3nc4c(cc3C)C(O)CC4)CC2)cn1 (single isomer, unassigned) [Example 71A] | 5.51
5 | Cc1cc2c(=O)[nH][nH]c2nc1N1CCC(Oc2ccc3cn[nH]c3c2)CC1 [Example 24, 6-(4-((1H-indazol-6-yl)oxy)piperidin-1-yl)-5-methyl-1,2-dihydro-3H-pyrazolo[3,4-b]pyridin-3-one] | 7.41
6 | COc1ccc(OC2CCN(c3nc4c(cc3C)C(=O)N3CCOCC43)CC2)cn1 (stereo not drawn) [Example 82, 2-(4-((6-methoxypyridin-3-yl)oxy)piperidin-1-yl)-3-methyl-7,8,10,10a-tetrahydro-5H-pyrido[2′,3′:3,4]pyrrolo[2,1-c][1,4]oxazin-5-one] | 7.04
7 | COc1ccc(OC2CCN(c3nc4c(cc3C)CN(C(=O)CCN(C)C)C4)CC2)cn1 [Example 53, 3-(dimethylamino)-1-(2-(4-((6-methoxypyridin-3-yl)oxy)piperidin-1-yl)-3-methyl-5,7-dihydro-6H-pyrrolo[3,4-b]pyridin-6-yl)propan-1-one] | 6.30
8 | Cc1cn2c(=O)[nH]nc2nc1N1CCC(Oc2ccc3c(cnn3C)c2)CC1 [Example 18] | 6.47
9 | Cc1cn2c(=O)n(C)nc2nc1N1CC[C@@H](Oc2ccc3c(cnn3C)c2)[C@@H](F)C1 [Example 10, 7-((3S,4R)-3-fluoro-4-((1-methyl-1H-indazol-5-yl)oxy)piperidin-1-yl)-2,6-dimethyl-[1,2,4]triazolo[4,3-a]pyrimidin-3(2H)-one] | 7.09
10 | Cc1cc2c(nc1N1CCC(Oc3ccc4c(c3)COC4)CC1)C1COCCN1C2=O (single isomer, unassigned) [Example 81B] | 6.79
11 | (R)-2-(4-((1,3-dihydroisobenzofuran-5-yl)oxy)piperidin-1-yl)-3-methyl-8,9,10,10a-tetrahydropyrido[2′,3′:3,4]pyrrolo[1,2-a]pyrazin-5(7H)-one and (S)-2-(4-((1,3-dihydroisobenzofuran-5-yl)oxy)piperidin-1-yl)-3-methyl-8,9,10,10a-tetrahydropyrido[2′,3′:3,4]pyrrolo[1,2-a]pyrazin-5(7H)-one [Example 83B] | 7.60
12 | Cc1cc2c(nc1N1CCC(Oc3ccc4c(c3)COC4)CC1)C1COCCN1C2=O (single isomer, unassigned) [Example 81A] | 7.54
13 | COc1ccc(OC2CCN(c3nc4c(cc3C)CN(S(C)(=O)=O)C4)CC2)cn1 [Example 59, 2-(4-((6-methoxypyridin-3-yl)oxy)piperidin-1-yl)-3-methyl-6-(methylsulfonyl)-6,7-dihydro-5H-pyrrolo[3,4-b]pyridine] | 6.90
14 | Cc1cn2c(=O)[nH]nc2nc1N1CC[C@@H](Oc2ccc3c(cnn3C)c2)[C@@H](F)C1 [Example 5, 7-((3S,4R)-3-fluoro-4-((1-methyl-1H-indazol-5-yl)oxy)piperidin-1-yl)-6-methyl-[1,2,4]triazolo[4,3-a]pyrimidin-3(2H)-one] | 7.21
15 | COc1ccc(OC2CCN(c3nc4c(cc3C)CNC4=O)CC2)cn1 [Example 1, (4-((6-Methoxypyridin-3-yl)oxy)piperidin-1-yl)-3-methyl-5H-pyrrolo[3,4-b]pyridin-7(6H)-one] | 6.71
16 | COc1ccc(OC2CCN(c3nc4c(C)n[nH]c4cc3C)CC2)cn1 [Example 65, 5-(4-((6-Methoxypyridin-3-yl)oxy)piperidin-1-yl)-3,6-dimethyl-1H-pyrazolo [4,3-b]pyridine] | 5.78
17 | Cc1cc2c(nc1N1CCC(Oc3ccccc3)CC1)CNS2(=O)=O [Example 77, 6-methyl-5-(4-phenoxypiperidin-1-yl)-2,3-dihydroisothiazolo[4,5-b]pyridine 1,1-dioxide] | 6.56
18 | Cc1cc2c(nc1N1CCC(Oc3ccc4c(c3)COC4)CC1)C1CNCCN1C2=O (single isomer, unassigned) [Example 83A] | 6.99
19 | COc1ccc(OC2CCN(c3nc4c(cc3C)C(=O)C(C)(C)C4)CC2)cn1 [Example 73, 2-(4-((6-Methoxypyridin-3-yl)oxy)piperidin-1-yl)-3,6,6-trimethyl-6,7-dihydro-5H-cyclopenta[b]pyridin-5-one] | 6.53
20 | COc1ccc(OC2CCN(c3nc4cn(C)nc4cc3C)CC2)cn1 [Example 64, 5-(4-((6-Methoxypyridin-3-yl)ox)piperidin-1-yl)-2,6-dimethyl-2H-pyrazolo[4,3-b]pyridine] | 6.62
21 | COc1ccc(OC2CCN(c3nc4c(cc3C)CN(C(=O)C3CCO3)C4)CC2)cn1 (stereo not drawn) [Example 48, (2-(4-((6-methoxypyridin-3-yl)oxy)piperidin-1-yl)-3-methyl-5,7-dihydro-6H-pyrrolo[3,4-b]pyridin-6-yl)(oxetan-2-yl)methanone] | 6.78
22 | COc1ccc(OC2CCN(c3nc4c(cc3C)S(=O)(=O)NC4)CC2)cn1 [Example 75, 5-(4-((6-Methoxypyridin-3-yl)oxy)piperidin-1-yl)-6-methyl-2,3-dihydroisothiazolo[4,5-b]pyridine 1,1-dioxide] | 6.78
23 | COc1ccc(OC2CCN(c3nc4c(cc3C)CCC4)CC2)cn1 [Example 72, 2-(4-((6-Methoxypyridin-3-yl)oxy)piperidin-1-yl)-3-methyl-6,7-dihydro-5H-cyclopenta[b]pyridine] | 5.82
24 | CCOC(=O)N1Cc2cc(C)c(N3CCC(Oc4ccc(OC)nc4)CC3)nc2C1 [Example 43, ethyl 2-(4-((6-methoxypyridin-3-yl)oxy)piperidin-1-yl)-3-methyl-5,7-dihydro-6H-pyrrolo[3,4-b]pyridine-6-carboxylate] | 6.80
25 | COc1ccc(OC2CCN(c3nc4c(cc3C)CN(C(=O)C3COC3)C4)CC2)cn1 [Example 55, (2-(4-((6-methoxypyridin-3-yl)oxy)piperidin-1-yl)-3-methyl-5,7-dihydro-6H-pyrrolo[3,4-b]pyridin-6-yl)(oxetan-3-yl)methanone] | 6.67
26 | Cc1cn2c(=O)[nH]nc2nc1N1CCC(Oc2ccccc2)CC1 [Example 15, 6-Methyl-7-(4-phenoxypiperidine-1-yl)-[1.2.4]triazolo[4,3-a]pyrimidin-3(2H)-one] | 7.26
27 | COc1ccc(OC2CCN(c3nc4c(cc3C)CN(CCO)C4)CC2)cn1 [Example 37, 2-(2-(4-((6-methoxypyridin-3-yl)oxy)piperidin-1-yl)-3-methyl-5,7-dihydro-6H-pyrrolo[3,4-b]pyridin-6-yl)ethan-1-ol] | 6.88
28 | COc1ccc(OC2CCN(c3nc4nccn4c(Cl)c3C)CC2)cn1 [Example 28, 5-chloro-7-(4-((6-methoxypyridin-3-yl)oxy)piperidin-1-yl)-6-methylimidazo[1,2-a]pyrimidine] | 6.23
29 | COc1ccc(OC2CCN(c3nc4c(cc3C)CN(C(=O)c3ccc[nH]3)C4)CC2)cn1 [Example 50, (2-(4-((6-methoxypyridin-3-yl)oxy)piperidin-1-yl)-3-methyl-5,7-dihydro-6H-pyrrolo[3,4-b]pyridin-6-yl)(1H-pyrrol-2-yl)methanone] | 6.32
30 | COc1ccc(OC2CCN(c3nc4c(cc3C)CN(C(=O)C3CN(C)C3)C4)CC2)cn1 [Example 52, (2-(4-((6-methoxypyridin-3-yl)oxy)piperidin-1-yl)-3-methyl-5,7-dihydro-6H-pyrrolo[3,4-b]pyridin-6-yl)(1-methylazetidin-3-yl)methanone] | 6.34
